Data taken from patent publication US8252832B2, “Kinesin inhibitors as cancer therapeutics” (Novartis AG, priority 2007, dated 2012).
Like-named read-outs stand apart in the source and are kept apart here.

Legend:
[1] = MV4; 11-luc disseminated disease model, host response; format: in vivo, mouse; conditions: q4d × 3, i.v
Method: The efficacy study in the disseminated disease model was performed using immunodeficient NOD-SCID female mice approximately 7-8 weeks old (Jackson Laboratories, Bar Harbor, Me.). […] Routine animal care and assurance of welfare were as described above. […] Doses were adjusted to each animal's body weight. […] Approximately 10 minutes prior to imaging, mice were injected i.p. with 150 mg/kg luciferin (Xenogen Corporation, Alameda, Calif.), followed by anesthetization with isoflurane. Photon emission was measured using a charge coupled device camera in the IVIS imaging system (Xenogen Corporation). Briefly, a gray-scale image of the mice was captured, followed by an overlay of a bioluminescence map representing the spatial distribution of photons detected from cleaved luciferin in the cancer cells expressing luciferase. Signal intensity was quantified using a customized version of the IGOR Pro version 4.09A Software (WaveMetrics, Inc., Lake Oswego, Oreg.) called Living Image version 2.50.2 (Xenogen). The sum of all detected photon counts from the dorsal+ventral views was determined. Bioluminescence of cancer cells in the animals was measured by imaging on designated days until the first mice developed hind limb paralysis due to disease burden, the main end point for when to humanely euthanize mice. The day of euthanasia for each mouse was recorded and the remaining percentage of mice surviving was plotted over time (Kaplan-Meier survival analysis). P values were calculated using the log-rank test (GraphPad Prism 4.0 software) to assess differences between treated and control groups (p<0.05 was considered significant). […] Data analysis was performed as described above.

HT29 = assay: CellTiter-Glo, NCI60 panel; format: cell-based, human; conditions: for GI50: Homo sapiens, HT-29, Colon
Source text: (§1) Identification of tumor types that are the most sensitive to the KSP inhibitors of the present invention can be accomplished using an unbiased approach that uses several cell-based assays. The assays chosen were as follows: • CellTiter-Glo®. This is an assay designed to measure ATP concentration in a cell culture, and can be correlated to cell number. Briefly CellTiter-Glo® (Promega Corporation) is a homogeneous method using the single CellTiter-Glo® reagent to detect ATP wherein ATP in the assay drives the activity of a thermostable luciferase to create a luminescent signal which can then be measured and correlated with the number of viable cells. Briefly, for adherent cells, 1,000 to 5,000 cells/well were plated in 96-well plates (100 μl/well) and let to adhere for 24 hours before being treated with drug. For non-adherent cells, 1,000 to 10,000 cells/well were plated in 96-well plates (100 μl/well) and immediately treated with drug. Drug dilutions were prepared in DMSO at 1000 times the final concentration. These dilutions were then diluted 1/100 in growth media before being added to the cells (11 μl/well) to achieve the desired final concentration. After 48 h in a 37° C. tissue culture incubator, the plates were processed for the CellTiter-Glo®assay according to the manufacturer's instructions. Protocol for a 72 hour cell proliferation assay: The 72 hour assay was performed the same way as the 48 hour assay except for the following modifications: For adherent cells, 500 to 5,000 cells/well were plated in 96-well plates (90 μl/well cell growth media) and left to adhere for 24 hours before being treated with drug. For non-adherent cells, 1,000 to 10,000 cells/well were plated in 96-well plates (90 μl/well cell growth media) and immediately treated with drug. Data values presented represent the concentration of test compound required for a 50% reduction in growth. • LDH release. The Cytotoxicity Detection KitPLUS (LDH) assay (Roche Diagnostics, Manheim, Germany) measures the amount of LDH released in the media by dying cells; LDH catalyzes the conversion of lactate into pyruvate. The enzymatic reaction is coupled to a chemical reaction that uses a tetrazolium salt to form a formazan that is red and can be detected by its absorbance at 490 nm. This assay measures the amount of cell death after drug treatment. Cells were plated at 10,000 cells/well in 96-well plates (100 μl/well). Adherent cells were let to adhere for 24 hours before being treated with drug, whereas non-adherent cells were immediately treated with drug. Drug dilutions were prepared in DMSO at 1000 times the final concentration. These dilutions were then diluted 1/100 in growth media before being added to the cells (11 μl/well) to achieve the desired final concentration. After 48 h in a 37° C. tissue culture incubator, the plates were processed for the Cytotoxicity Detection KitPLUS (LDH) assay according to the manufacturer's instructions. The media only values were subtracted from all the data points before analysis. Data values presented correspond to the compound concentration wherein LDH output is at half maximal level. • Caspase-Glo® 3/7. The Caspase-Glo® 3/7 Assay (Promega Corporation) is a homogeneous luminescent assay that measures caspase-3/7 activities. The assay provides a proluminescent caspase-3/7 DEVD-aminoluciferin substrate and a thermostable luciferase in a reagent optimized for caspase-3/7 activity, luciferase activity and cell lysis. Adding the single Caspase-Glo® 3/7 Reagent results in cell lysis, followed by caspase cleavage of the substrate. This liberates free aminoluciferin, which is consumed by the luciferase, generating a luminescent signal. The signal is proportional to caspase-3/7 activity. Data values presented correspond to the compound concentration wherein caspase 3/7 activity is at half maximal level. […]

COLO 205 = assay: CellTiter-Glo, NCI60 panel; format: cell-based, human; conditions: Colon; for GI50: Homo sapiens
Source text: as §1

HCT-116 = assay: CellTiter-Glo, NCI60 panel; format: cell-based, human; conditions: Colon; for GI50: Homo sapiens
Source text: as §1

HCT-15 = assay: CellTiter-Glo, NCI60 panel; format: cell-based, human; conditions: Colon; for GI50: Homo sapiens
Source text: as §1

T-47D = assay: CellTiter-Glo, NCI60 panel; format: cell-based, human; conditions: Breast; for GI50: Homo sapiens, T47D
Source text: as §1

[2] = GI50 in nM, read-out: Log(GI50) (converted)

CC(C)(C)[C@H](c1nc(-c2cc(F)ccc2F)cn1Cc1ccccc1)N(CC[C@H](N)CF)C(=O)CO [Compound IIa]
% Max. Δ body weight, (Day) ([1]; 0.25 mg/kg, D5): 5.6 ± 1.3% | Max. Δ body weight (g) (Day) ([1]; 0.25 mg/kg, D5): 1.1 ± 0.44 g | % Max. Δ body weight, (Day) ([1]; 0.5 mg/kg, D10): −2.6 ± 2.3% | Max. Δ body weight (g) (Day) ([1]; 0.5 mg/kg, D10): -0.57 ± 0.45 g | % Max. Δ body weight, (Day) ([1]; 1 mg/kg, D10): −4.2 ± 1.7% | Max. Δ body weight (g) (Day) ([1]; 1 mg/kg, D10): -0.77 ± 0.32 g | Differential vs mean Log(GI50) (HT29; Colon): −0.669 | GI50 (HT29; [2]): 10 nM | GI50 (HT29; read-out: GI50): 10 nM | Differential vs mean Log(GI50) (COLO 205): −0.669 | GI50 (COLO 205; [2]): 10 nM | GI50 (COLO 205; read-out: GI50): 10 nM | Differential vs mean Log(GI50) (HCT-116): 1.191 | GI50 (HCT-116; [2]): 0.138 nM | GI50 (HCT-116; read-out: GI50): 0.138 nM | Differential vs mean Log(GI50) (HCT-15): 0.754 | GI50 (HCT-15; [2]): 0.378 nM | GI50 (HCT-15; read-out: GI50): 0.378 nM | Differential vs mean Log(GI50) (T-47D): −0.669 | GI50 (T-47D; [2]): 10 nM | GI50 (T-47D; read-out: GI50): 10 nM
